Laboratory results from the NIST ThermoML archive (doi:10.1021/je800110r).
± gives the expanded uncertainty stated by the source.

Conditions: 303.16 K, Liquid, Vibrating tube method

CCCCCCCCCC [decane]
Conditions	mass density [kg/m3]
20929 kPa	738 ± 2
20946 kPa	738.2 ± 2
20968 kPa	738.1 ± 2
20994 kPa	738 ± 2
21014 kPa	738.1 ± 2
21034 kPa	738.1 ± 2
21060 kPa	738.2 ± 2
21084 kPa	738.1 ± 2
21107 kPa	738.2 ± 2
21124 kPa	738.2 ± 2
21151 kPa	738.1 ± 2
21174 kPa	738.2 ± 2
21191 kPa	738.2 ± 2
21209 kPa	738.2 ± 2
21226 kPa	738.3 ± 2
21243 kPa	738.2 ± 2
21267 kPa	738.4 ± 2
21293 kPa	738.3 ± 2
21314 kPa	738.3 ± 2
21341 kPa	738.3 ± 2
21358 kPa	738.4 ± 2
21382 kPa	738.3 ± 2
21403 kPa	738.3 ± 2
21424 kPa	738.5 ± 2
21448 kPa	738.4 ± 2
21469 kPa	738.5 ± 2
21490 kPa	738.4 ± 2
21514 kPa	738.4 ± 2
21538 kPa	738.4 ± 2
21560 kPa	738.6 ± 2
21579 kPa	738.5 ± 2
21600 kPa	738.5 ± 2
21622 kPa	738.5 ± 2
21641 kPa	738.5 ± 2
21662 kPa	738.6 ± 2
21686 kPa	738.6 ± 2
21708 kPa	738.7 ± 2
21730 kPa	738.6 ± 2
21745 kPa	738.7 ± 2
21779 kPa	738.7 ± 2
21805 kPa	738.6 ± 2
21827 kPa	738.7 ± 2
21847 kPa	738.7 ± 2
21869 kPa	738.6 ± 2
21891 kPa	738.7 ± 2
21916 kPa	738.7 ± 2
21938 kPa	738.8 ± 2
21962 kPa	738.8 ± 2
21987 kPa	738.7 ± 2
22006 kPa	738.8 ± 2
22029 kPa	738.9 ± 2
22057 kPa	738.8 ± 2
22086 kPa	738.8 ± 2
22108 kPa	738.7 ± 2
22127 kPa	738.9 ± 2
22153 kPa	738.8 ± 2
22178 kPa	738.9 ± 2
22201 kPa	738.8 ± 2
22224 kPa	739 ± 2
22246 kPa	738.9 ± 2
22269 kPa	738.9 ± 2
22291 kPa	739.1 ± 2
22314 kPa	739 ± 2
22333 kPa	738.9 ± 2
22360 kPa	739 ± 2
22380 kPa	739 ± 2
22410 kPa	739 ± 2
22436 kPa	739 ± 2
22463 kPa	739.1 ± 2
22489 kPa	739.1 ± 2
22516 kPa	739 ± 2
22542 kPa	739.1 ± 2
22565 kPa	739.1 ± 2
22589 kPa	739.2 ± 2
22619 kPa	739.2 ± 2
22647 kPa	739.2 ± 2
22666 kPa	739.2 ± 2
22696 kPa	739.3 ± 2
22723 kPa	739.2 ± 2
22750 kPa	739.3 ± 2
22773 kPa	739.3 ± 2
22801 kPa	739.4 ± 2
22825 kPa	739.3 ± 2
22846 kPa	739.3 ± 2
22870 kPa	739.4 ± 2
22897 kPa	739.3 ± 2
22918 kPa	739.3 ± 2
22950 kPa	739.5 ± 2
22971 kPa	739.4 ± 2
22996 kPa	739.5 ± 2
23013 kPa	739.5 ± 2
23041 kPa	739.4 ± 2
23062 kPa	739.5 ± 2
23097 kPa	739.5 ± 2
23124 kPa	739.5 ± 2
23149 kPa	739.6 ± 2
23174 kPa	739.6 ± 2
23202 kPa	739.6 ± 2
23224 kPa	739.6 ± 2
23257 kPa	739.7 ± 2
23285 kPa	739.6 ± 2
23310 kPa	739.6 ± 2
23339 kPa	739.7 ± 2
23360 kPa	739.7 ± 2
23385 kPa	739.6 ± 2
23411 kPa	739.7 ± 2
23437 kPa	739.8 ± 2
23466 kPa	739.7 ± 2
23495 kPa	739.8 ± 2
23526 kPa	739.7 ± 2
23549 kPa	739.7 ± 2
23575 kPa	739.9 ± 2
23600 kPa	739.8 ± 2
23630 kPa	739.9 ± 2
23652 kPa	739.9 ± 2
23682 kPa	739.9 ± 2
23705 kPa	739.9 ± 2
23735 kPa	739.9 ± 2
23761 kPa	740 ± 2
23784 kPa	739.9 ± 2
23813 kPa	739.9 ± 2
23845 kPa	740.1 ± 2
23872 kPa	740 ± 2
23902 kPa	740.1 ± 2
23933 kPa	740.1 ± 2
23968 kPa	740.1 ± 2
23991 kPa	740.1 ± 2
24021 kPa	740.2 ± 2
24048 kPa	740.2 ± 2
24083 kPa	740.1 ± 2
24102 kPa	740.1 ± 2
24133 kPa	740.2 ± 2
24165 kPa	740.2 ± 2
24200 kPa	740.3 ± 2
24235 kPa	740.3 ± 2
24255 kPa	740.2 ± 2
24282 kPa	740.4 ± 2
